The results in this text go back to ChEMBL document CHEMBL2169751, “Synthesis and biological evaluation of novel pyrazole derivatives with anticancer activity” (2011).

This experiment has as its system Mycobacterium tuberculosis. Put plainly: Antimycobacterial activity against Mycobacterium tuberculosis H37Rv ATCC 27294 after 7 days by Resazurin assay. In kind it is functional. Set-up: concentration or dose not given beside the values.
Regarding `COc1ccc(NC(=S)NNC(=O)c2cnc3c(C(F)(F)F)cccc3c2O)cc1`, the “inhibition (INH)” value is reported as under 90%. Take `CO[C@H]1/C=C/O[C@@]2(C)Oc3c(C)c(O)c4c(O)c(c(/C=N/N5CCN(C)CC5)c(O)c4c3C2=O)NC(=O)/C(C)=C\C=C\[C@H](C)[C@H](O)[C@@H](C)[C@@H](O)[C@@H](C)[C@H](OC(C)=O)[C@@H]1C` [RIFAMPIN]: the “inhibition (INH)” value is 95%. The value for `COc1ccc(/C=N/NC(=O)c2cnc3c(C(F)(F)F)cccc3c2O)cc1` was 90%; that for `Cc1ccc(/C=N/NC(=O)c2cnc3c(C(F)(F)F)cccc3c2O)cc1` was under 90%; that for `Cn1cccc1/C=N\NC(=O)c1cnc2c(C(F)(F)F)cccc2c1O` was 90%. For the molecule `COc1ccc(NC(=O)NNC(=O)c2cnc3c(C(F)(F)F)cccc3c2O)cc1`, the “inhibition (INH)” value is listed as 90%. As to `COc1ccc(/C=N/NC(=O)c2cnc3c(C(F)(F)F)cccc3c2O)cc1O`, the “inhibition (INH)” value was under 90%. The value for `O=C(NNC(=S)Nc1cccnc1)c1cnc2c(C(F)(F)F)cccc2c1O` was 0%; that for `COc1ccc2[nH]cc(/C=N/NC(=O)c3cnc4c(C(F)(F)F)cccc4c3O)c2c1` was 95%; that for `O=C(NNC(=O)c1cnc2c(C(F)(F)F)cccc2c1O)Nc1cccc(Cl)c1` was under 90%. Regarding `O=C(NNC(=S)Nc1ccccc1F)c1cnc2c(C(F)(F)F)cccc2c1O`, the “inhibition (INH)” value is listed as 95%. With `Cn1nnc2cc(/C=N\NC(=O)c3cnc4c(C(F)(F)F)cccc4c3O)ccc21`, the “inhibition (INH)” value was under 90%. For `Cc1ccc(NC(=O)NNC(=O)c2cnc3c(C(F)(F)F)cccc3c2O)cc1`, the “inhibition (INH)” value is 90%. `Cc1cc(C)cc(NC(=O)NNC(=O)c2cnc3c(C(F)(F)F)cccc3c2O)c1`: the “inhibition (INH)” value was under 90%.

`O=C(N/N=C/c1ccc(OC(F)(F)C(F)F)cc1)c1cnc2c(C(F)(F)F)cccc2c1O`: the “inhibition (INH)” value was under 90%. The value for `COC(=O)Cc1cc(/C=N/NC(=O)c2cnc3c(C(F)(F)F)cccc3c2O)co1` was under 90%; that for `Cc1[nH]cnc1/C=N/NC(=O)c1cnc2c(C(F)(F)F)cccc2c1O` was 90%.

As for `O=C(N/N=C/c1cnc[nH]1)c1cnc2c(C(F)(F)F)cccc2c1O`, the “inhibition (INH)” value is on record as 90%. The value for `CCc1ccc(NC(=O)NNC(=O)c2cnc3c(C(F)(F)F)cccc3c2O)cc1` was under 90%. The value for `O=C(NNC(=S)Nc1cccc(Cl)c1)c1cnc2c(C(F)(F)F)cccc2c1O` was under 90%. In the case of `O=C(N/N=C/c1ccncc1)c1cnc2c(C(F)(F)F)cccc2c1O`, the “inhibition (INH)” value came to 0%. Turning to `O=C(N/N=C/c1cc(F)ccc1O)c1cnc2c(C(F)(F)F)cccc2c1O`, the “inhibition (INH)” value was under 90%. The value for `O=C(N/N=C/c1ccc2c(c1)CCO2)c1cnc2c(C(F)(F)F)cccc2c1O` was 0%. The value for `CSc1ccccc1/C=N/NC(=O)c1cnc2c(C(F)(F)F)cccc2c1O` was 0%; that for `NNC(=O)c1ccncc1` [ISONIAZID] was 95%. For `Cc1cccc2c(/C=N/NC(=O)c3cnc4c(C(F)(F)F)cccc4c3O)c[nH]c12` the value was 95%; for `Cc1ccc(NC(=S)NNC(=O)c2cnc3c(C(F)(F)F)cccc3c2O)cc1`, 0%. Consider `COc1ccc(/C=N/NC(=O)c2cnc3c(C(F)(F)F)cccc3c2O)c(F)c1`, for which the “inhibition (INH)” value is 95%.
